Reference: patent US20230085307A1, “PYRIDAZINONE COMPOUND AND HERBICIDE” (NISSAN CHEMICAL CORPORATION, priority 2019, published 2023)

Columns and labels:
rice flat sedge = assay: Test Example 3: herbicidal effect by foliage application, Wagner pot (Table 18, symbol E); type: in vivo, rice flat sedge (Cyperus iria)
In short: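 Plants were sown in alluvial soil held under 0.1–0.5 cm standing water and grown 14 days in a greenhouse at 25–30 °C. An emulsifiable formulation, water-diluted to the set dose, was then sprayed onto the foliage, and effects were scored three weeks later using previously defined criteria.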

oval-leafed pondweed [1] = assay: Test Example 2: herbicidal activity, application during weed generation under submerged conditions (Table 17, symbol C); type: in vivo, oval-leafed pondweed (Monochoria vaginalis); settings: application during weed generation, submerged conditions
In short: (§1)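 Steps: fill Wagner pots with alluvial soil; add water to give 4 cm depth; sow the species mixed; grow under glass at 25–30° C.; at 1–2 leaves apply water-diluted emulsion formulation to the water surface at a fixed herbicide amount; score after 3 weeks.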

Italian ryegrass [2] = assay: Test Example 5: herbicidal effect by foliage application, plastic box (Table 20, symbol K); type: in vivo, Italian ryegrass (Lolium multiflorum); settings: foliage application, three weeks after application
In short: (§2)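 Plants were sown into sterilized diluvial soil under about 1.5 cm cover and kept in a greenhouse at 25° C. to 30° C. Fourteen days on, foliage received an even spray of the diluted emulsion. Herbicidal or crop effect was judged three weeks afterwards.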

southern crabgrass = assay: Test Example 5: herbicidal effect by foliage application, plastic box (Table 20, symbol F); type: in vivo, southern crabgrass (Digitaria ciliaris); settings: foliage application, three weeks after application
In short: as §2

velvetleaf [3] = assay: Test Example 4: herbicidal effect by soil treatment (Table 19, symbol M); type: in vivo, velvetleaf (Abutilon theophrasti)
In short: (§3)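 Pre-emergence style soil spray: seeds under ~1.5 cm sterilized diluvial soil received a uniform coat of emulsion diluted to the predetermined herbicide amount. Greenhouse 25–30° C; readout at week three on previously defined criteria.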

persian speedwell = assay: Test Example 5: herbicidal effect by foliage application, plastic box (Table 20, symbol R); type: in vivo, Persian speedwell (Veronica persica); settings: foliage application, three weeks after application
In short: as §2

wild oat [4] = assay: Test Example 4: herbicidal effect by soil treatment (Table 19, symbol I); type: in vivo, wild oat (Avena fatua)
In short: as §3

oval-leafed pondweed [5] = assay: Test Example 1: herbicidal activity, application before weed generation under submerged conditions (Table 16, symbol C); type: in vivo, oval-leafed pondweed (Monochoria vaginalis)
In short: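 Alluvial soil was flooded to 4 cm depth, weed seeds were sown mixed and 2.5-leaf rice seedlings were transplanted. On sowing day, the compound's emulsion, diluted in water to a set dose, was applied to the water surface. Plants grew at 25–30 °C and were scored 0–5 after three weeks.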

velvetleaf [6] = assay: Test Example 5: herbicidal effect by foliage application, plastic box (Table 20, symbol M); type: in vivo, velvetleaf (Abutilon theophrasti); settings: foliage application, three weeks after application
In short: as §2

wild oat [7] = assay: Test Example 5: herbicidal effect by foliage application, plastic box (Table 20, symbol I); type: in vivo, wild oat (Avena fatua); settings: foliage application, three weeks after application
In short: as §2

chickweed = assay: Test Example 4: herbicidal effect by soil treatment (Table 19, symbol P); type: in vivo, common chickweed (Stellaria media)
In short: as §3

late watergrass = assay: Test Example 2: herbicidal activity, application during weed generation under submerged conditions (Table 17, symbol A); type: in vivo, late watergrass (Echinochloa oryzicola); settings: application during weed generation, submerged conditions
In short: as §1

blackgrass = assay: Test Example 4: herbicidal effect by soil treatment (Table 19, symbol J); type: in vivo, blackgrass (Alopecurus myosuroides)
In short: as §3

green foxtail [8] = assay: Test Example 5: herbicidal effect by foliage application, plastic box (Table 20, symbol G); type: in vivo, green foxtail (Setaria viridis); settings: foliage application, three weeks after application
In short: as §2

green foxtail [9] = assay: Test Example 4: herbicidal effect by soil treatment (Table 19, symbol G); type: in vivo, green foxtail (Setaria viridis)
In short: as §3

Italian ryegrass [10] = assay: Test Example 4: herbicidal effect by soil treatment (Table 19, symbol K); type: in vivo, Italian ryegrass (Lolium multiflorum)
In short: as §3

redroot pigweed = assay: Test Example 4: herbicidal effect by soil treatment (Table 19, symbol N); type: in vivo, redroot pigweed (Amaranthus retroflexus)
In short: as §3

In the case of Cc1nn(C)c(=O)c(-c2c(-c3ccc(OCC4CC4(F)F)cc3)sc3ccccc23)c1O (centres unmarked) [1-138], the “herbicidal effect on E (rice flat sedge), rating 0-5” value (“herbicidal effect on E” for short) (rice flat sedge; 320 g/ha) is reported as 5 (Herbicidal rate of 90% or more (almost completely withered)), the “herbicidal effect rating, C: oval-leafed pondweed” value (“herbicidal effect rating, C” below) (oval-leafed pondweed [1]; AAH 320 g/ha) is reported as 0 (Herbicidal rate of 5% or less (almost no effect)) and the “K: Italian ryegrass, herbicidal effect” value (Italian ryegrass [2]; AAH 320 g/ha) is reported as 5 (Herbicidal rate of 90% or more (almost completely withered)). The “F: southern crabgrass, herbicidal effect” value (southern crabgrass; AAH 320 g/ha) was 0 (Herbicidal rate of 5% or less (almost no effect)), the “M: velvetleaf, herbicidal effect rating” value (velvetleaf [3]; AAH 320 g/ha) was 3 (Herbicidal rate of 40% or more and less than 70%) and the “R: persian speedwell, herbicidal effect” value (persian speedwell; AAH 320 g/ha) was 5 (Herbicidal rate of 90% or more (almost completely withered)). For the same compound, the “I: wild oat, herbicidal effect rating” value (wild oat [4]; AAH 320 g/ha) was 0 (Herbicidal rate of 5% or less (almost no effect)), the “Herbicidal effect on C: oval-leafed pondweed (grade 0-5)” value (“Herbicidal effect on C” below) (oval-leafed pondweed [5]; 320 g/ha applied herbicide) was 3 (Herbicidal rate of 40% or more and less than 70%) and the “M: velvetleaf, herbicidal effect” value (velvetleaf [6]; AAH 320 g/ha) was 4 (Herbicidal rate of 70% or more and less than 90%). For the same compound, the “I: wild oat, herbicidal effect” value (wild oat [7]; AAH 320 g/ha) was 0 (Herbicidal rate of 5% or less (almost no effect)), the “P: chickweed, herbicidal effect rating” value (chickweed; AAH 320 g/ha) was 4 (Herbicidal rate of 70% or more and less than 90%) and the “herbicidal effect rating, A: late watergrass” value (late watergrass; AAH 320 g/ha) was 0 (Herbicidal rate of 5% or less (almost no effect)). The “J: blackgrass, herbicidal effect rating” value (blackgrass; AAH 320 g/ha) was 3 (Herbicidal rate of 40% or more and less than 70%), the “G: green foxtail, herbicidal effect” value (green foxtail [8]; AAH 320 g/ha) was 3 (Herbicidal rate of 40% or more and less than 70%) and the “G: green foxtail, herbicidal effect rating” value (green foxtail [9]; AAH 320 g/ha) was 4 (Herbicidal rate of 70% or more and less than 90%). The “K: Italian ryegrass, herbicidal effect rating” value (Italian ryegrass [10]; AAH 320 g/ha) was 5 (Herbicidal rate of 90% or more (almost completely withered)) and the “N: redroot pigweed, herbicidal effect rating” value (shortened to “N: redroot pigweed”) (redroot pigweed; AAH 320 g/ha) was 5 (Herbicidal rate of 90% or more (almost completely withered)).
With CSCCOc1ccc(-c2sc3ccccc3c2-c2c(O)c(C)nn(C)c2=O)cc1 [1-141] the “herbicidal effect on E” value (rice flat sedge; 320 g/ha) was 5 (Herbicidal rate of 90% or more (almost completely withered)), the “herbicidal effect rating, C” value (oval-leafed pondweed [1]; AAH 320 g/ha) was 0 (Herbicidal rate of 5% or less (almost no effect)) and the “K: Italian ryegrass, herbicidal effect” value (Italian ryegrass [2]; AAH 320 g/ha) was 5 (Herbicidal rate of 90% or more (almost completely withered)). The “F: southern crabgrass, herbicidal effect” value (southern crabgrass; AAH 320 g/ha) was 5 (Herbicidal rate of 90% or more (almost completely withered)), the “M: velvetleaf, herbicidal effect rating” value (velvetleaf [3]; AAH 320 g/ha) was 4 (Herbicidal rate of 70% or more and less than 90%) and the “R: persian speedwell, herbicidal effect” value (persian speedwell; AAH 320 g/ha) was 5 (Herbicidal rate of 90% or more (almost completely withered)). The “I: wild oat, herbicidal effect rating” value (wild oat [4]; AAH 320 g/ha) was 0 (Herbicidal rate of 5% or less (almost no effect)), the “Herbicidal effect on C” value (oval-leafed pondweed [5]; 320 g/ha applied herbicide) was 0 (Herbicidal rate of 5% or less (almost no effect)) and the “M: velvetleaf, herbicidal effect” value (velvetleaf [6]; AAH 320 g/ha) was 4 (Herbicidal rate of 70% or more and less than 90%). For the same compound, the “I: wild oat, herbicidal effect” value (wild oat [7]; AAH 320 g/ha) was 5 (Herbicidal rate of 90% or more (almost completely withered)), the “P: chickweed, herbicidal effect rating” value (chickweed; AAH 320 g/ha) was 4 (Herbicidal rate of 70% or more and less than 90%) and the “herbicidal effect rating, A: late watergrass” value (late watergrass; AAH 320 g/ha) was 0 (Herbicidal rate of 5% or less (almost no effect)). For the same compound, the “J: blackgrass, herbicidal effect rating” value (blackgrass; AAH 320 g/ha) was 0 (Herbicidal rate of 5% or less (almost no effect)), the “G: green foxtail, herbicidal effect” value (green foxtail [8]; AAH 320 g/ha) was 5 (Herbicidal rate of 90% or more (almost completely withered)) and the “G: green foxtail, herbicidal effect rating” value (green foxtail [9]; AAH 320 g/ha) was 5 (Herbicidal rate of 90% or more (almost completely withered)). The “K: Italian ryegrass, herbicidal effect rating” value (Italian ryegrass [10]; AAH 320 g/ha) was 5 (Herbicidal rate of 90% or more (almost completely withered)) and the “N: redroot pigweed” value (redroot pigweed; AAH 320 g/ha) was 5 (Herbicidal rate of 90% or more (almost completely withered)).
With Cc1nn(C)c(=O)c(-c2c(-c3ccc(OCC4CC4)cc3)sc3ccccc23)c1O [1-142] the “herbicidal effect on E” value (rice flat sedge; 320 g/ha) was 5 (Herbicidal rate of 90% or more (almost completely withered)), the “herbicidal effect rating, C” value (oval-leafed pondweed [1]; AAH 320 g/ha) was 0 (Herbicidal rate of 5% or less (almost no effect)) and the “K: Italian ryegrass, herbicidal effect” value (Italian ryegrass [2]; AAH 320 g/ha) was 0 (Herbicidal rate of 5% or less (almost no effect)). For the same compound, the “F: southern crabgrass, herbicidal effect” value (southern crabgrass; AAH 320 g/ha) was 1 (Herbicidal rate of 5% or more and less than 20%), the “M: velvetleaf, herbicidal effect rating” value (velvetleaf [3]; AAH 320 g/ha) was 3 (Herbicidal rate of 40% or more and less than 70%) and the “R: persian speedwell, herbicidal effect” value (persian speedwell; AAH 320 g/ha) was 5 (Herbicidal rate of 90% or more (almost completely withered)). For the same compound, the “I: wild oat, herbicidal effect rating” value (wild oat [4]; AAH 320 g/ha) was 0 (Herbicidal rate of 5% or less (almost no effect)), the “Herbicidal effect on C” value (oval-leafed pondweed [5]; 320 g/ha applied herbicide) was 5 (Herbicidal rate of 90% or more (almost completely withered)) and the “M: velvetleaf, herbicidal effect” value (velvetleaf [6]; AAH 320 g/ha) was 1 (Herbicidal rate of 5% or more and less than 20%). For the same compound, the “I: wild oat, herbicidal effect” value (wild oat [7]; AAH 320 g/ha) was 0 (Herbicidal rate of 5% or less (almost no effect)), the “P: chickweed, herbicidal effect rating” value (chickweed; AAH 320 g/ha) was 2 (Herbicidal rate of 20% or more and less than 40%) and the “herbicidal effect rating, A: late watergrass” value (late watergrass; AAH 320 g/ha) was 0 (Herbicidal rate of 5% or less (almost no effect)). The “J: blackgrass, herbicidal effect rating” value (blackgrass; AAH 320 g/ha) was 0 (Herbicidal rate of 5% or less (almost no effect)), the “G: green foxtail, herbicidal effect” value (green foxtail [8]; AAH 320 g/ha) was 2 (Herbicidal rate of 20% or more and less than 40%) and the “G: green foxtail, herbicidal effect rating” value (green foxtail [9]; AAH 320 g/ha) was 0 (Herbicidal rate of 5% or less (almost no effect)). The “K: Italian ryegrass, herbicidal effect rating” value (Italian ryegrass [10]; AAH 320 g/ha) was 0 (Herbicidal rate of 5% or less (almost no effect)) and the “N: redroot pigweed” value (redroot pigweed; AAH 320 g/ha) was 4 (Herbicidal rate of 70% or more and less than 90%).
COCCOc1ccc(-c2sc3ccccc3c2-c2c(O)c(C)nn(C)c2=O)cc1 [1-148] was tested, and the “herbicidal effect on E” value (rice flat sedge; 368 g/ha) was 5 (Herbicidal rate of 90% or more (almost completely withered)), the “herbicidal effect rating, C” value (oval-leafed pondweed [1]; AAH 368 g/ha) was 1 (Herbicidal rate of 5% or more and less than 20%) and the “K: Italian ryegrass, herbicidal effect” value (Italian ryegrass [2]; AAH 368 g/ha) was 5 (Herbicidal rate of 90% or more (almost completely withered)). The “F: southern crabgrass, herbicidal effect” value (southern crabgrass; AAH 368 g/ha) was 5 (Herbicidal rate of 90% or more (almost completely withered)), the “M: velvetleaf, herbicidal effect rating” value (velvetleaf [3]; AAH 368 g/ha) was 4 (Herbicidal rate of 70% or more and less than 90%) and the “R: persian speedwell, herbicidal effect” value (persian speedwell; AAH 368 g/ha) was 5 (Herbicidal rate of 90% or more (almost completely withered)). For the same compound, the “I: wild oat, herbicidal effect rating” value (wild oat [4]; AAH 368 g/ha) was 2 (Herbicidal rate of 20% or more and less than 40%), the “Herbicidal effect on C” value (oval-leafed pondweed [5]; 368 g/ha applied herbicide) was 3 (Herbicidal rate of 40% or more and less than 70%) and the “M: velvetleaf, herbicidal effect” value (velvetleaf [6]; AAH 368 g/ha) was 5 (Herbicidal rate of 90% or more (almost completely withered)). For the same compound, the “I: wild oat, herbicidal effect” value (wild oat [7]; AAH 368 g/ha) was 4 (Herbicidal rate of 70% or more and less than 90%), the “P: chickweed, herbicidal effect rating” value (chickweed; AAH 368 g/ha) was 5 (Herbicidal rate of 90% or more (almost completely withered)) and the “herbicidal effect rating, A: late watergrass” value (late watergrass; AAH 368 g/ha) was 3 (Herbicidal rate of 40% or more and less than 70%). For the same compound, the “J: blackgrass, herbicidal effect rating” value (blackgrass; AAH 368 g/ha) was 1 (Herbicidal rate of 5% or more and less than 20%), the “G: green foxtail, herbicidal effect” value (green foxtail [8]; AAH 368 g/ha) was 5 (Herbicidal rate of 90% or more (almost completely withered)) and the “G: green foxtail, herbicidal effect rating” value (green foxtail [9]; AAH 368 g/ha) was 5 (Herbicidal rate of 90% or more (almost completely withered)). For the same compound, the “K: Italian ryegrass, herbicidal effect rating” value (Italian ryegrass [10]; AAH 368 g/ha) was 5 (Herbicidal rate of 90% or more (almost completely withered)) and the “N: redroot pigweed” value (redroot pigweed; AAH 368 g/ha) was 5 (Herbicidal rate of 90% or more (almost completely withered)).
